Earlier results in patent publication US20120058932A1, “ACTIVE INGREDIENT-PEPTIDE CONSTRUCT FOR EXTRACELLULAR CONCENTRATION” (MAX PLANCK-GESELLSCHAFT ZUR FORDERUNG DER WISSENSCHAFTEN …, priority 2008, published 2012).

Conditions: blood cells vs plasma

In the case of C/C=C/C[C@@H](C)[C@@H](O)[C@H]1C(=O)N[C@@H](CC)C(=O)N(C)CC(=O)N(C)[C@@H](CC(C)C)C(=O)N[C@@H](C(C)C)C(=O)N(C)[C@@H](CC(C)C)C(=O)N[C@@H](C)C(=O)N[C@H](COCCO)C(=O)N(C)[C@@H](CC(C)C)C(=O)N(C)[C@@H](CC(C)C)C(=O)N(C)[C@@H](C(C)C)C(=O)N1C [SDZ IMM 125], the “Concentration in blood cells relative to the surrounding plasma” value is given as “approximately 8 ×”.
